Laboratory results from patent publication US6551812B1, “Compositions and methods relating to the peroxisomal proliferator activated receptor-α mediated pathway” (CuraGen Corporation, priority 1998, dated 2003).
Like-named read-outs stand apart in the source and are kept apart here.

Key:
[1] = tested on: genes responsive to PPARαL treatment in rat liver; assay: GENECALLING differential gene expression analysis of liver from rats treated with PPARα ligand GW9578 vs vehicle control; format: in vivo
Experimental: The present invention is based in part on the discovery of changes in expression patterns of multiple nucleic acid sequences, including sequences encoding known genes as well as heretofore undescribed nucleic acid sequences, in rodent liver cells following exposure to a ligand for a PPARα. The differences in gene expression were identified following administration of 1.5 mg/kg/day of a PPARα-specific ligand named GW9578. This compound is described in Brown et al., J. Med. Chem.42:3785-8, 1999, whose contents are incorporated herein in their entirety.
GW9578 was administered to male 10-14 week old Sprague Dawley rats in b.i.d. dosing for 3 days. The animals were sacrificed 24 hours following the last dose, and liver tissue was analysis using the GENECALLING® sequence identification methods described U.S. Pat. No. 5,871,697. The contents of this application are incorporated herein by reference in their entirety.
The GENECALLING® sequence identification method is performed by digesting a cDNA with a pair of restriction endonucleases. The digested fragments are differentially tagged at both the 3- and 5′-termini, and amplified via polymerase chain reaction (PCR) with a fluorescent label that is detected upon subsequent electrophoresis. In the studies with PPARα ligand GW9578, a total of 48 different reactions were performed, each with a unique pair of restriction enzymes. […] This number represents a non-redundant coverage of approximately 85% of the total number of hepatic genes.
The hepatic response to treatment with the PPARαL compound was determined by comparing in triplicate the relative abundance of each of the 8973 gene fragments in the PPARαL-treated vs. the PPARα-untreated rodents. Comparison was performed using commercially available GENESCAPE® expression analysis software. PPARαL administration detectably altered the expression of 218 of the 8973 (2.4%) hepatic genes fragments by greater than 1.5-fold. […] Novel genes, corresponding to fragments with no match within the database, were subsequently isolated and sequenced (FIG. 4). […] There was an excellent correlation between the expression analysis results derived by the GENECALLING® sequence identification methods in comparison with those results previously obtained by the use of reverse transcriptase-based PCR (“RT-PCR”) (See FIG. 3).
Harlan Sprague Dawley rats 10-14 weeks old were treated with oral tablet doses of: (i) PPARαL in an n-methylglucamine carrier twice daily (b.i.d) for a total of 3 days (3 rats total) or (ii) PPARαL in an n-methylglucamine carrier twice daily (b.i.d.) for a total of 3 days (3 rats total) or (iii) the n-methylglucamine carrier alone twice daily (b.i.d.) for a total of 3 days (3 rats total). On the fourth day, approximately 12 hours following the last dose of drug the animals were sacrificed. Liver and adipose tissue were harvested from all animals and snap frozen in liquid nitrogen.
Total cellular RNA was isolated with Trizol (GIBCO-BRL; Baltimore Md.) using a one-tenth volume of bromochloropropane (Molecular Research Corp.; Cincinnati, Ohio) to facilitate phase separation. Contaminating DNA was removed by treatment with DNase I (Promega Biotech; Milwaukee, Wis.) in the presence of 0.01 M DTT (GIBCO-BRL; Baltimore, Md.) and 1 Unit/1 RNAsin (Promega Biotech; Milwaukee, Wis.). Following phenol/chloroform extraction, RNA quality was evaluated by spectrophotometry and formaldehyde agarose gel electrophoresis, and RNA yield was estimated by fluorometry with OliGreen® (Molecular Probes; Eugene, Oreg.). Poly(A)^+ RNA was prepared from […] of total RNA by use of oligo(dT) paramagnetic beads (PerSeptive Biosynthesis; Boston, Mass.), and quantitated with fluorometry.
First strand cDNA was prepared from […] of poly(A)^+ RNA with 200 pmoles oligo(dT)25V (where V=A, C or G) (PerSeptive Biosynthesis; Boston, Mass.) using 40 Units of SuperScript II reverse transcriptase (GIBCO-BRL; Baltimore, Md.). […]

Histidine decarboxylase = conditions: rat stomach; cited from earlier work
CYP2B1 [2] = conditions: in vivo mouse model; cited from earlier work
CYP2B1 [3] = conditions: rat hepatocytes; cited from earlier work
acetyl CoA carboxylase = conditions: co-incubation of hepatocytes with ligand; cited from earlier work
GSTa isoform = conditions: rat livers, precancerous change; cited from earlier work
[4] = rat liver, 1.5 mg/kg/day b.i.d. 3 days, vs vehicle control
[5] = rat liver, treatment with PPARαL
[6] = rat liver, upon treatment with PPARα ligand

CCCCCCCN(CCc1ccc(SC(C)(C)C(=O)O)cc1)C(=O)Nc1ccc(F)cc1F [GW9578]
number of the 8973 hepatic gene fragments whose expression was altered by greater than 1.5-fold ([1]; 1.5 mg/kg/day, b.i.d. for 3 days, male Sprague Dawley rats, liver, treated vs untreated, triplicate): 218 | D-aminolevulinate synthetase up-regulation [1, 4]: 4 fold | acetoacetyl-CoA thiolase upregulation [1, 4]: 100 fold | acetyl-CoA-decarboxylase modulation [1, 4]: +2 fold | apolipoprotein A-I modulation [1, 4]: −2 fold | carnitine octanoyl transferase upregulation [1, 4]: 4 fold | catalase upregulation [1, 4]: 12 fold | down-regulation of metallothionein 1 [1, 4]: 100 fold | epoxide hydrolase upregulation [1, 4]: 10 fold | novel isoform of acyl-CoA oxidase upregulation [1, 4]: 10 fold | porphobilinogen deaminase up-regulation [1, 4]: 60 fold | reduction in steroid 3-α-dehydrogenase transcript levels [1, 4]: 60 fold | steroid 3-delta-dehydrogenase modulation [1, 4]: off | very long chain acyl CoA synthetase upregulation [1, 4]: 4 fold | novel gene similar in sequence to mouse carnitine acetyltransferase, expression ([1]; rat liver, following PPARα ligand treatment): moderately upregulated | histidine decarboxylase gene upregulation ([1]; rat liver, following exposure to PPARα ligand): six | 17-α-hydroxysteroid dehydrogenase IV transcription [1, 5]: up-regulated | genes encoding the other steroid catabolism enzymes (steroid-3-α-dehydrogenase, hydroxysteroid sulfotransferase, CYP p450 M1, SMP-2, UDP-glucosuronyl transferase 21) [1, 5]: downregulated | acetyl-CoA carboxylase expression [1, 6]: upregulation | decrease in expression of the gene for glutathione S transferase Ya subunit [1, 6]: three | differential regulation of ATP citrate lyase and fatty acid synthase [1, 6]: not detected | malic enzyme expression [1, 6]: upregulation | stearyl-CoA desaturase expression [1, 6]: upregulation

CC(C)(Oc1ccc(C2CC2(Cl)Cl)cc1)C(=O)O (stereo not shown) [ciprofibrate]
histidine decarboxylase expression (Histidine decarboxylase): upregulated

CCOC(=O)C(C)(C)Oc1ccc(Cl)cc1 [clofibrate]
gene encoding CYP2B1, expression (CYP2B1 [2]): not been observed to change

CC(C)(Oc1ccc(Cl)cc1)C(=O)O [clofibric acid]
gene encoding CYP2B1, expression (CYP2B1 [3]): upregulated

CC(C)(Oc1ccc(C2CCCc3ccccc32)cc1)C(=O)O (stereo not shown) [nafenopin]
acetyl CoA carboxylase activity (acetyl CoA carboxylase): reduced | GSTa isoform level (GSTa isoform): decrease
